Results taken from patent CN116444420A, “β-catenin/BCL9蛋白蛋白相互作用的小分子抑制剂及其应用” (Shanghai Pharmaceutical Industry Research Institute Co ltd, priority 2021, dated 2023).

The molecules below were run against T1, β-catenin/BCL9 protein-protein [β-catenin/BCL9蛋白-蛋白] (Homo sapiens, UniProt P35222) (assay: β-catenin/BCL9 protein-protein affinity, fluorescence polarisation (Example 71)). Details: better than compound c.
T1 construct: β-catenin(1-781)
T1 sequence (P35222 1-781): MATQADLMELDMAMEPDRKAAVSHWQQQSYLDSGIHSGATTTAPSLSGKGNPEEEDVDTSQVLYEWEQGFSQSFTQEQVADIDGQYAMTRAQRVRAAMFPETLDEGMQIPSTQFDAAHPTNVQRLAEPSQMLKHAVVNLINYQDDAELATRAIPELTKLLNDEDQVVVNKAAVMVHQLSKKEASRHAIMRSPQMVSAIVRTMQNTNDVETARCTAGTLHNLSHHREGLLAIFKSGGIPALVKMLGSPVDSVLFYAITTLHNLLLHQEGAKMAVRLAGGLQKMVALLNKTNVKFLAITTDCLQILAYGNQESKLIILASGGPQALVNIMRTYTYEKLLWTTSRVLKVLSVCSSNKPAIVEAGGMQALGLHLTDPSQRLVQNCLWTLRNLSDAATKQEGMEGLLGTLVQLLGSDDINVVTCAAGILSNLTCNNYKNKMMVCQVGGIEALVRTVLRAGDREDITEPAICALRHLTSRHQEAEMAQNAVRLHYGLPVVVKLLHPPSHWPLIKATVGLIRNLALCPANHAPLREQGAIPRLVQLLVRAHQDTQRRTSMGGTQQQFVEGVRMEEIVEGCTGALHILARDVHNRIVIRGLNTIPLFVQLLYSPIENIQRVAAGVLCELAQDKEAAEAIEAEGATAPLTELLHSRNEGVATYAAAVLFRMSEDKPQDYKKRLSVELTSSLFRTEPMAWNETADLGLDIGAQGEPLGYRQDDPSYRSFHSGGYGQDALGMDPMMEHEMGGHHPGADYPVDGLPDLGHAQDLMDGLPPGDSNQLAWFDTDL
Type: binding

Row | Compound | affinity activity compared with reference compound c
1 | CC(C)(Oc1cccc(C2CCCN(C(=O)c3cccc(-c4ccccc4)c3)C2)c1)C(=O)O (centres unmarked) [化合物II-9, 2-(3-(1-([1,1'-联苯基]-3-羰基)哌啶-3-基)苯氧基)-2-甲基丙酸] | 亲和活性更优
2 | CC(C)(Oc1cccc(C2CCCN(S(=O)(=O)c3cccc(C4CCCCC4)c3)C2)c1)C(=O)O (centres unmarked) [化合物II-16, 2-(3-(1-((3-环己基苯基)磺酰基)哌啶-3-基)苯氧基)-2-甲基丙酸] | 亲和活性更优
3 | CC(C)(Oc1cccc(C2CCCN(S(=O)(=O)c3cccc(-c4cccs4)c3)C2)c1)C(=O)O (centres unmarked) [化合物II-17, 2-甲基-2-(3-(1-((3-(噻吩-2-基)苯基)磺酰基)哌啶-3-基)苯氧基)丙酸] | 亲和活性更优
4 | CC(C)(Oc1cccc(C2CCCN(C(=O)c3cccc(-c4ccc(F)c(F)c4)c3)C2)c1)C(=O)NS(=O)(=O)c1ccccc1 (centres unmarked) [化合物II-29, 2-(3-(1-(3',4'-二氟-[1,1'-联苯基]-3-羰基)哌啶-3-基)苯氧基)-2-甲基-N-(苯磺酰基)丙酰胺] | 亲和活性更优
5 | CC(C)c1ccc(-c2cccc(S(=O)(=O)N3CCCC(c4cccc(OC(C)(C)C(=O)NS(=O)(=O)c5ccc(C#N)cc5)c4)C3)c2)cc1 (centres unmarked) [化合物II-37, N-((4-氰基苯基)磺酰基)-2-(3-(1-((4'-异丙基-[1,1'-联苯]-3-基)磺酰)哌啶-3-基(苯氧基)-2-甲基丙酰胺] | 亲和活性更优
6 | CC(C)c1ccc(-c2cccc(S(=O)(=O)N3CCCC(c4cccc(OC(C)(C)C(=O)NS(=O)(=O)c5cccc(C(F)(F)F)c5)c4)C3)c2)cc1 (centres unmarked) [化合物II-40, 2-(3-(1-((4'-异丙基-[1,1'-联苯]-3-基)磺酰基)哌啶-3-基(苯氧基)-2-甲基-N-((3-(三氟甲基)苯基)磺酰)丙酰胺] | 亲和活性更优
7 | CC(C)c1ccc(-c2cccc(S(=O)(=O)N3CCCC(c4cccc(OC(C)(C)C(=O)NS(=O)(=O)c5ccc([N+](=O)[O-])cc5)c4)C3)c2)cc1 (centres unmarked) [化合物II-42, 2-(3-(1-((4'-异丙基-[1,1'-联苯]-3-基)磺酰基)哌啶-3-基苯氧基)-2-甲基-N-((4-硝基苯基)磺酰)丙酰胺] | 亲和活性更优
8 | CC(C)c1ccc(-c2cccc(S(=O)(=O)N3CCCC(c4cccc(OC(C)(C)C(=O)NS(=O)(=O)c5ccc(F)cc5)c4)C3)c2)cc1 (centres unmarked) [化合物II-43, N-((4-氟苯基)磺酰基)-2-(3-(1-((4'-异丙基-[1,1'-联苯]-3-基)磺酰)哌啶-3-基苯氧基)-2-甲基丙酰胺] | 亲和活性更优

Other lines, results leading:

Row | affinity activity compared with reference compound c | Compound
9 | 亲和活性更优 | CC(C)c1ccc(-c2cccc(S(=O)(=O)N3CCCC(c4cccc(OC(C)(C)C(=O)NS(=O)(=O)c5cccc(F)c5)c4)C3)c2)cc1 (centres unmarked) [化合物II-44, N-((3-氟苯基)磺酰基)-2-(3-(1-((4'-异丙基-[1,1'-联苯]-3-基)磺酰)哌啶-3-基苯氧基)-2-甲基丙酰胺]
10 | 亲和活性更优 | CC(C)c1ccc(-c2cccc(S(=O)(=O)N3CCCC(c4cccc(OC(C)(C)C(=O)NS(=O)(=O)c5cccc([N+](=O)[O-])c5)c4)C3)c2)cc1 (centres unmarked) [化合物II-45, 2-(3-(1-((4'-异丙基-[1,1'-联苯]-3-基)磺酰基)哌啶-3-基苯氧基)-2-甲基-N-((3-硝基苯基)磺酰)丙酰胺]
11 | 亲和活性更优 | CC(C)c1ccc(-c2cccc(S(=O)(=O)N3CCCC(c4cccc(OC(C)(C)C(=O)NS(=O)(=O)c5cccc(C#N)c5)c4)C3)c2)cc1 (centres unmarked) [化合物II-46, N-((3-氰基苯基)磺酰基)-2-(3-(1-((4'-异丙基-[1,1'-联苯]-3-基)磺酰)哌啶-3-基苯氧基)-2-甲基丙酰胺]
12 | 亲和活性更优 | CC(C)c1ccc(-c2cccc(S(=O)(=O)N3CCCC(c4cccc(OC(C)(C)C(=O)NS(=O)(=O)c5ccc(OC(F)(F)F)cc5)c4)C3)c2)cc1 (centres unmarked) [化合物II-48, 2-(3-(1-((4'-异丙基-[1,1'-联苯]-3-基)磺酰基)哌啶-3-基苯氧基)-2-甲基-N-((4-(三氟甲氧基)苯基)磺酰)丙酰胺]
13 | 亲和活性更优 | CC(=O)Nc1ccc(S(=O)(=O)NC(=O)C(C)(C)Oc2cccc(C3CCCN(S(=O)(=O)c4cccc(-c5ccc(C(C)C)cc5)c4)C3)c2)cc1 (centres unmarked) [化合物II-49, N-((4-乙酰氨基苯基)磺酰基)-2-(3-(1-((4'-异丙基-[1,1'-联苯]-3-基)磺酰)哌啶-3-基(苯氧基)-2-甲基丙酰胺]
14 | 亲和活性更优 | CC(C)c1ccc(-c2cccc(S(=O)(=O)N3CCCC(c4cccc(OC(C)(C)C(=O)NS(=O)(=O)c5ccc6ccccc6c5)c4)C3)c2)cc1 (centres unmarked) [化合物II-50, 2-(3-(1-((4'-异丙基-[1,1'-联苯]-3-基)磺酰基)哌啶-3-基(苯氧基)-2-甲基-N-(萘-2-基磺酰)丙酰胺]
